Several values for one entry are separate records, joined by “and”; a condition that tells them apart may be missing. Equal values may be shown once.
Assays:
[1] = tested on: LXFA 983/9N4 (Lung, adeno); experiment: Oncotest Exp H331: growth of LXFA 983 lung tumor xenograft after dosing with B-RAF inhibitor; assay type: in vivo, mice; conditions: H331-2, 100 mg/kg/day, Days 0-21; for Absolute body weight, Median / Relative body weight, Median / Absolute tumor volume: (a*b*b)/2, Median / Relative tumor volume, Median: group median; for Absolute body weight, Median / Relative body weight, Median: n 10; for Absolute tumor volume: (a*b*b)/2, Median / Relative tumor volume, Median: n 15; for Relative tumor volume / Absolute tumor volume: (a*b*b)/2: individual tumors
Text: (§1) FIGS. 10-18 depict growth in lung tumor xenografts after dosing with GDC-0879.
(§2) The data are shown below, and in FIGS. 10-14 for Experiment H331 and FIGS. 15-18 for Experiment H327.

[2] = tested on: lung tumor xenografts; experiment: Experiment H327: growth in lung tumor xenografts after dosing with B-RAF inhibitor; assay type: in vivo, mice; conditions: H327-2, LXFA 1041/9N4, 100 mg/kg/day po Days 0-20
Text: as §1, §2

[3] = study day 3, individual animals, listed as G-026887
[4] = study day 3, listed as G-026887
[5] = study day 7, individual animals, listed as G-026887
[6] = study day 7, listed as G-026887
[7] = study day 10, individual animals, listed as G-026887
[8] = study day 10, listed as G-026887
[9] = study day 14, individual animals, listed as G-026887
[10] = study day 14, listed as G-026887
[11] = study day 17, individual animals, listed as G-026887
[12] = study day 17, listed as G-026887
[13] = study day 21, individual animals, listed as G-026887
[14] = study day 21, listed as G-026887

OCCn1cc(-c2ccc3c(c2)CC/C3=N\O)c(-c2ccncc2)n1 [GDC-0879, 2-{4-[(1E)-1-(hydroxyimino)-2,3-dihydro-1H-inden-5-yl]-3-(pyridine-4-yl)-1H-pyrazol-1-yl}ethan-1-ol]
Survival time ([1]; individual animals, listed as G-026887): >22 days (6×) and >21 days (14×)
Absolute body weight, Median ([1]; study day 0): 27.5 g
Relative body weight, Median ([1]; study day 0): 100.0%
Absolute tumor volume: (a*b*b)/2, Median ([1]; study day 0): 117.2 mm3
Relative tumor volume, Median ([1]; study day 0): 100.0%
Relative body weight ([1]; study day 0, individual animals): 100.0%
Absolute body weight ([1]; study day 0, individual animals, listed as G-026887): 27.2 g and 26.9 g and 27.3 g and 26.1 g and 29.4 g and 24.8 g and 31.2 g (2×) and 30.2 g and 27.6 g
Relative tumor volume ([1]; study day 0): 100.0%
Absolute tumor volume: (a*b*b)/2 ([1]; study day 0, listed as G-026887): 117.2 mm3 and 121.1 mm3 and 94.1 mm3 and 137.3 mm3 and 237.3 mm3 and 62.5 mm3 and 80.2 mm3 and 123.0 mm3 and 111.6 mm3 and 74.4 mm3 (2×) and 219.4 mm3 and 55.3 mm3 and 150.4 mm3 and 130.7 mm3
Absolute body weight, Median ([1]; study day 3): 27.2 g
Relative body weight, Median ([1]; study day 3): 97.9%
Absolute tumor volume: (a*b*b)/2, Median ([1]; study day 3): 236.3 mm3
Relative tumor volume, Median ([1]; study day 3): 211.7%
Absolute body weight [1, 3]: 26.8 g and 27.2 g and 26.7 g and 25.6 g and 27.9 g and 24.7 g and 29.4 g and 29.2 g and 27.1 g and 29.6 g
Relative body weight [1, 3]: 94.9% (2×) and 98.5% and 101.1% and 97.8% and 98.1% and 99.6% and 94.2% and 96.7% and 98.2%
Absolute tumor volume: (a*b*b)/2 [1, 4]: 265.6 mm3 and 166.6 mm3 and 188.5 mm3 and 239.1 mm3 and 546.2 mm3 and 176.4 mm3 and 210.9 mm3 and 268.8 mm3 and 236.3 mm3 and 156.8 mm3 and 392.9 mm3 and 119.1 mm3 and 310.7 mm3 and 295.9 mm3 and 83.2 mm3
Relative tumor volume [1, 4]: 111.8% and 226.6% and 137.6% and 200.4% and 174.1% and 230.2% and 282.2% and 263.0% and 218.5% and 211.7% and 210.9% and 179.1% and 215.3% and 206.6% and 226.4%
Absolute body weight, Median ([1]; study day 7): 27.3 g
Relative body weight, Median ([1]; study day 7): 96.5%
Absolute tumor volume: (a*b*b)/2, Median ([1]; study day 7): 348.2 mm3
Relative tumor volume, Median ([1]; study day 7): 293.3%
Absolute body weight [1, 5]: 26.3 g (2×) and 27.4 g and 25.7 g and 27.1 g and 24.2 g and 28.9 g and 28.1 g and 27.6 g and 29.3 g
Relative body weight [1, 5]: 93.9% and 96.7% and 101.9% and 96.3% and 98.5% and 92.2% and 97.6% and 92.6% and 93.0% and 100.0%
Absolute tumor volume: (a*b*b)/2 [1, 6]: 392.9 mm3 and 325.1 mm3 and 261.6 mm3 and 445.5 mm3 and 689.1 mm3 and 289.1 mm3 and 348.2 mm3 and 344.4 mm3 and 455.1 mm3 and 253.1 mm3 and 560.0 mm3 and 216.6 mm3 and 352.5 mm3 and 383.3 mm3
Relative tumor volume [1, 6]: 152.3% and 335.2% and 268.5% and 278.0% and 324.4% and 290.4% and 462.6% and 434.2% and 280.0% and 407.8% and 340.4% and 255.3% and 391.6% and 234.4%
Absolute body weight, Median ([1]; study day 10): 27.3 g
Relative body weight, Median ([1]; study day 10): 97.9%
Absolute tumor volume: (a*b*b)/2, Median ([1]; study day 10): 406.6 mm3
Relative tumor volume, Median ([1]; study day 10): 392.5%
Absolute body weight [1, 7]: 26.7 g (2×) and 26.9 g and 25.6 g and 27.6 g and 25.3 g and 29.1 g (2×) and 28.6 g (2×)
Relative body weight [1, 7]: 91.7% and 98.2% and 100.0% and 97.8% and 98.1% and 93.9% and 102.0% and 93.3% and 96.4% and 103.6%
Absolute tumor volume: (a*b*b)/2 [1, 8]: 431.7 mm3 and 379.3 mm3 and 329.5 mm3 and 539.0 mm3 and 964.8 mm3 and 404.0 mm3 and 612.5 mm3 and 525.4 mm3 and 528.2 mm3 and 302.6 mm3 and 570.0 mm3 and 348.5 mm3 and 372.6 mm3 and 406.6 mm3
Relative tumor volume [1, 8]: 269.9% and 368.3% and 313.3% and 350.2% and 392.5% and 406.6% and 646.4% and 763.8% and 427.1% and 473.3% and 406.9% and 259.8% and 630.2% and 247.8%
Absolute body weight, Median ([1]; study day 14): 28.6 g
Relative body weight, Median ([1]; study day 14): 99.5%
Absolute tumor volume: (a*b*b)/2, Median ([1]; study day 14): 578.8 mm3
Relative tumor volume, Median ([1]; study day 14): 580.3%
Absolute body weight [1, 9]: 26.8 g and 27.2 g and 28.2 g and 25.5 g and 29.1 g and 25.8 g and 29.4 g and 30.2 g and 28.9 g and 30.3 g
Relative body weight [1, 9]: 97.1% and 98.5% and 101.1% and 103.3% and 97.7% and 99.0% and 104.0% and 94.2% and 100.0% and 104.7%
Absolute tumor volume: (a*b*b)/2 [1, 10]: 578.8 mm3 and 655.5 mm3 and 545.9 mm3 and 574.3 mm3 and 1411.2 mm3 and 581.0 mm3 and 1115.4 mm3 and 951.3 mm3 and 891.1 mm3 and 318.2 mm3 and 597.5 mm3 and 390.2 mm3 and 510.0 mm3 and 499.4 mm3
Relative tumor volume [1, 10]: 620.2% and 493.8% and 541.3% and 580.3% and 418.3% and 594.7% and 929.7% and 1390.9% and 773.4% and 798.5% and 427.9% and 272.4% and 705.6% and 339.1%
Absolute body weight, Median ([1]; study day 17): 28.8 g
Relative body weight, Median ([1]; study day 17): 100.8%
Absolute tumor volume: (a*b*b)/2, Median ([1]; study day 17): 742.6 mm3
Relative tumor volume, Median ([1]; study day 17): 719.8%
Absolute body weight [1, 11]: 27.2 g and 27.6 g and 28.5 g and 25.8 g (2×) and 29.5 g (2×) and 30.6 g and 29.0 g and 30.7 g
Relative body weight [1, 11]: 98.4% and 100.0% and 102.6% and 104.4% and 98.9% and 100.3% and 104.0% and 94.6% and 101.3% and 105.1%
Absolute tumor volume: (a*b*b)/2 [1, 12]: 705.7 mm3 and 742.6 mm3 and 701.1 mm3 and 841.5 mm3 and 1708.0 mm3 and 642.0 mm3 and 1229.4 mm3 and 1327.1 mm3 and 1247.1 mm3 and 426.5 mm3 and 778.8 mm3 and 520.5 mm3 and 606.4 mm3 and 758.4 mm3
Relative tumor volume [1, 12]: 860.5% and 602.1% and 613.3% and 745.2% and 612.8% and 719.8% and 1027.1% and 1533.1% and 1078.9% and 1117.5% and 573.5% and 355.0% and 941.4% and 403.2%
Absolute body weight, Median ([1]; study day 21): 29.0 g
Relative body weight, Median ([1]; study day 21): 103.5%
Absolute tumor volume: (a*b*b)/2, Median ([1]; study day 21): 958.8 mm3
Relative tumor volume, Median ([1]; study day 21): 826.5%
Absolute body weight [1, 13]: 28.6 g and 27.5 g and 29.3 g and 26.9 g and 31.1 g and 26.6 g and 30.6 g and 31.0 g and 28.7 g and 31.6 g
Relative body weight [1, 13]: 101.3% and 105.1% and 102.2% and 107.3% (2×) and 103.1% and 105.8% and 98.1% and 102.6% and 104.0%
Absolute tumor volume: (a*b*b)/2 [1, 14]: 893.3 mm3 and 1083.3 mm3 and 715.5 mm3 and 1030.4 mm3 and 1961.1 mm3 and 772.8 mm3 and 1472.3 mm3 and 1618.7 mm3 and 1461.9 mm3 and 550.0 mm3 and 958.8 mm3 and 609.2 mm3 and 712.9 mm3 and 874.7 mm3
Relative tumor volume [1, 14]: 1511.3% and 762.1% and 894.7% and 760.5% and 750.4% and 826.5% and 1236.5% and 1836.0% and 1316.0% and 1309.9% and 739.6% and 437.1% and 1101.7% and 474.0%
Survival time ([2]; individual animal, listed as G-026887): >20 days (14×) and >21 days (6×)
Absolute body weight, Median ([2]; study day 0, group median n 10): 25.1 g
Relative body weight, Median ([2]; study day 0, group median n 10): 100.0%
Absolute tumor volume: (a*b*b)/2, Median ([2]; study day 0, group median n 20): 88.5 mm3
Relative tumor volume, Median ([2]; study day 0, group median n 20): 100.0%
Relative body weight ([2]; study day 0, individual animal): 100.0%
Absolute body weight ([2]; study day 0, individual animal, listed as G-026887): 25.4 g and 28.6 g and 24.5 g (2×) and 24.0 g and 25.1 g and 29.8 g and 31.5 g and 25.0 g and 23.6 g
Relative tumor volume ([2]; study day 0, individual tumor): 100.0%

Reference: patent US20150164895A1, “DETERMINING SENSITIVITY OF CELLS TO B-RAF INHIBITOR TREATMENT BY DETECTING KRAS MUTATION AND RTK EXPRESSION LEVELS” (GENENTECH, INC., priority 2009, published 2015)
